# Patent US11339128B2 (Firmenich Incorporated, priority 2014, dated 2022)
# Target: T1, T1R2/T1R3 taste receptor (Homo sapiens, UniProt Q7RTX0+Q8TE23)
# T1 sequence (Q8TE23 20-839): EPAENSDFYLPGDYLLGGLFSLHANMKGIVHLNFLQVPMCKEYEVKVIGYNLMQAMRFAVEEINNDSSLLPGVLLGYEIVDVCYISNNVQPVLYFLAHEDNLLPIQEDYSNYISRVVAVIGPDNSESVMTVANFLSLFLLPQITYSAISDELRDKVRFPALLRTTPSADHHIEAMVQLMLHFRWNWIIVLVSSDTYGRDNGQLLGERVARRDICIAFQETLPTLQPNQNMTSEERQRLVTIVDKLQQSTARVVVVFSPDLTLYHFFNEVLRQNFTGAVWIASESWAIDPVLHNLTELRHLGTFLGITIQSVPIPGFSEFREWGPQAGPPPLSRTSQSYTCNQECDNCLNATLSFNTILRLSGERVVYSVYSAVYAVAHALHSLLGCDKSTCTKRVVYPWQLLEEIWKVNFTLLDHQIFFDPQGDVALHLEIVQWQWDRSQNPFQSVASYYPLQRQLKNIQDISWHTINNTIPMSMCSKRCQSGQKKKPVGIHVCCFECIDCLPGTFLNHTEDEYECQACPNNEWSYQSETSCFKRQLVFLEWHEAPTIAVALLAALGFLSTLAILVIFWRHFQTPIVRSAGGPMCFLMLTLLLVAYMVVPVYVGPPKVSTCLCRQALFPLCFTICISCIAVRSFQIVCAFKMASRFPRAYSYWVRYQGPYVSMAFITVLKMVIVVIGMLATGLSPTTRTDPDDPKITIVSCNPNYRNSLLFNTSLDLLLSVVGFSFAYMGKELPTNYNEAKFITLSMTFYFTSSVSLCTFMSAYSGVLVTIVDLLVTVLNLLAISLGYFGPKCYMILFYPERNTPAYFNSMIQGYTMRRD
# T1 sequence (Q7RTX0 21-852): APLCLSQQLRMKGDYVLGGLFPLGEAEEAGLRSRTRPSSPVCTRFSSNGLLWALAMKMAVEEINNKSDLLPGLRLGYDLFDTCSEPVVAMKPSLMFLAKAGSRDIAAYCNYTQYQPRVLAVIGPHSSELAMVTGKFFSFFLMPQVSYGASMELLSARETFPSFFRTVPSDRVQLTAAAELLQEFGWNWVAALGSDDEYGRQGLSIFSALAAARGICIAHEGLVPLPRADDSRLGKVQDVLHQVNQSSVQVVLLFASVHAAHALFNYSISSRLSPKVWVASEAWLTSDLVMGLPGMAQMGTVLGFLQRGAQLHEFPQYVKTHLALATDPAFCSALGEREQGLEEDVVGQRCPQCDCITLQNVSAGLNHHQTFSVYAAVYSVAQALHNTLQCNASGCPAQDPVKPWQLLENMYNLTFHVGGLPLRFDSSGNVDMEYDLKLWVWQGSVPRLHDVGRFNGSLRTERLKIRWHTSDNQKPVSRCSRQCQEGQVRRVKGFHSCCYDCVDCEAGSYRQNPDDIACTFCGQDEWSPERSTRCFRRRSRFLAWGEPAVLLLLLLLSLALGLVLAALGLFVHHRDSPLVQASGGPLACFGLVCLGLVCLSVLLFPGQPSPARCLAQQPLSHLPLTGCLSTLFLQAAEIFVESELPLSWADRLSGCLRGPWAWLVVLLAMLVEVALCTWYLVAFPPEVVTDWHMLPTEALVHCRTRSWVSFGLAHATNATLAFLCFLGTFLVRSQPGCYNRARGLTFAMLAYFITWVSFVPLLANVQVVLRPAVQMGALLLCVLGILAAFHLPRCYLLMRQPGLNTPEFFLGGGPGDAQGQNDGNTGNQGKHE
# Experiment: Receptor-based assay: sweetener EC50 enhancement ratio with and without test compound
# Assay type: cell-based
# Settings: for Sucrose Enhancement EC50 Ratio: sweetener sucrose; for Sucralose Enhancement EC50 Ratio: sweetener sucralose; for Fructose Enhancement EC50 Ratio: sweetener fructose
# In short: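 Sweetener (sucrose, sucralose, fructose) EC50 measured alone and with 1, 3, 10 or 50 μM test compound. Enhancement ratio = EC50 without/with compound; A = >1 to <10, B = 10–20, C = >20.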
Structure (SMILES),Sucrose Enhancement EC50 Ratio (1 μM test compound),Sucralose Enhancement EC50 Ratio (3 μM test compound),Sucrose Enhancement EC50 Ratio (3 μM test compound),Fructose Enhancement EC50 Ratio (10 μM test compound),Sucralose Enhancement EC50 Ratio (10 μM test compound),Sucrose Enhancement EC50 Ratio (10 μM test compound),Fructose Enhancement EC50 Ratio (50 μM test compound)
COc1cnc(N[C@H]2CC[C@H](Oc3cccc4nc(C)c(C(=O)O)c(N)c34)CC2)nc1 [Compound 703],A (an enhancement ratio of greater than 1 and less than 10),B (an enhancement ratio from 10 to 20),A (an enhancement ratio of greater than 1 and less than 10),A (an enhancement ratio of greater than 1 and less than 10),B (an enhancement ratio from 10 to 20),B (an enhancement ratio from 10 to 20),
CCC(CC)COCC(=O)N[C@H]1CC[C@H](Oc2cccc3nc(C)c(C(=O)O)c(N)c23)CC1 [Compound 331],A (an enhancement ratio of greater than 1 and less than 10),,A (an enhancement ratio of greater than 1 and less than 10),,,C (an enhancement ratio greater than 20),
Cc1nc2cccc(O[C@H]3CC[C@H](NC(=O)COc4ccccc4)CC3)c2c(N)c1C(=O)O [Compound 327],A (an enhancement ratio of greater than 1 and less than 10),,,,,,
Cc1cc(N[C@H]2CC[C@H](Oc3cccc4nc(C)c(C(=O)O)c(N)c34)CC2)nc(N)n1 [Compound 712],A (an enhancement ratio of greater than 1 and less than 10),B (an enhancement ratio from 10 to 20),B (an enhancement ratio from 10 to 20),A (an enhancement ratio of greater than 1 and less than 10),C (an enhancement ratio greater than 20),C (an enhancement ratio greater than 20),A (an enhancement ratio of greater than 1 and less than 10)
CCCc1nc2cccc(OC3CCC(C)(C)CC3)c2c(N)c1C(=O)O [Compound 208],A (an enhancement ratio of greater than 1 and less than 10),,A (an enhancement ratio of greater than 1 and less than 10),,,A (an enhancement ratio of greater than 1 and less than 10),
Cc1nc2cccc(O[C@H]3CC[C@H](NC(=O)COCC4CCOCC4)CC3)c2c(N)c1C(=O)O [Compound 339],A (an enhancement ratio of greater than 1 and less than 10),,B (an enhancement ratio from 10 to 20),,,,
Cc1nc2cccc(O[C@H]3CC[C@H](NC(=O)CO)CC3)c2c(N)c1C(=O)O [Compound 303],A (an enhancement ratio of greater than 1 and less than 10),,A (an enhancement ratio of greater than 1 and less than 10),,A (an enhancement ratio of greater than 1 and less than 10),B (an enhancement ratio from 10 to 20),
Cc1cnn(CC(=O)N[C@H]2CC[C@H](Oc3cccc4nc(C)c(C(=O)O)c(N)c34)CC2)c1 [Compound 330],A (an enhancement ratio of greater than 1 and less than 10),,A (an enhancement ratio of greater than 1 and less than 10),,,A (an enhancement ratio of greater than 1 and less than 10),
CCc1nc2cccc(OC3CCCCC3)c2c(N)c1C(=O)O [Compound 200],A (an enhancement ratio of greater than 1 and less than 10),,A (an enhancement ratio of greater than 1 and less than 10),,,A (an enhancement ratio of greater than 1 and less than 10),
Cc1nc2cccc(O[C@H]3CC[C@H](NC(=O)COCCOCc4ccccc4)CC3)c2c(N)c1C(=O)O [Compound 333],A (an enhancement ratio of greater than 1 and less than 10),,B (an enhancement ratio from 10 to 20),,,,
Cc1nc2cccc(O[C@H]3CC[C@H](NC(=O)COC4CCOCC4)CC3)c2c(N)c1C(=O)O [Compound 314],B (an enhancement ratio from 10 to 20),B (an enhancement ratio from 10 to 20),,,,,
CNCC(=O)N[C@H]1CC[C@H](Oc2cccc3nc(C)c(C(=O)O)c(N)c23)CC1 [Compound 402],A (an enhancement ratio of greater than 1 and less than 10),,A (an enhancement ratio of greater than 1 and less than 10),A (an enhancement ratio of greater than 1 and less than 10),A (an enhancement ratio of greater than 1 and less than 10),B (an enhancement ratio from 10 to 20),
CCc1nc2cccc(O[C@H]3CC[C@@H](C)CC3)c2c(N)c1C(=O)O [Compound 202],A (an enhancement ratio of greater than 1 and less than 10),,A (an enhancement ratio of greater than 1 and less than 10),,,A (an enhancement ratio of greater than 1 and less than 10),
Cc1nc2cccc(O[C@H]3CC[C@H](NC(=O)Cc4c[nH]cn4)CC3)c2c(N)c1C(=O)O [Compound 321],A (an enhancement ratio of greater than 1 and less than 10),,A (an enhancement ratio of greater than 1 and less than 10),,,,
COCCOCC(=O)N[C@H]1CC[C@H](Oc2cccc3nc(C)c(C(=O)O)c(N)c23)CC1 [Compound 336],A (an enhancement ratio of greater than 1 and less than 10),B (an enhancement ratio from 10 to 20),C (an enhancement ratio greater than 20),,,,
"Cc1nc2cccc(O[C@H]3CC[C@H](NC(=O)COCC(C)(C)C)CC3)c2c(N)c1C(=O)O [Compound 301, 4-Amino-2-methyl-5-((trans-4-(2-(neopentyloxy)acetamido)cyclohexyl)oxy) quinoline-3-carboxylic acid]",B (an enhancement ratio from 10 to 20),B (an enhancement ratio from 10 to 20),B (an enhancement ratio from 10 to 20),,,,
Cc1cnc(N[C@H]2CC[C@H](Oc3cccc4nc(C)c(C(=O)O)c(N)c34)CC2)nc1 [Compound 705],A (an enhancement ratio of greater than 1 and less than 10),A (an enhancement ratio of greater than 1 and less than 10),B (an enhancement ratio from 10 to 20),A (an enhancement ratio of greater than 1 and less than 10),B (an enhancement ratio from 10 to 20),B (an enhancement ratio from 10 to 20),
CCc1nc2cccc(O[C@H]3CC[C@H](CO)CC3)c2c(N)c1C(=O)O [Compound 206],A (an enhancement ratio of greater than 1 and less than 10),,A (an enhancement ratio of greater than 1 and less than 10),,,A (an enhancement ratio of greater than 1 and less than 10),
Cc1nc2cccc(OC3CCC(C)(C)CC3)c2c(N)c1C(=O)O [Compound 103],C (an enhancement ratio greater than 20),,C (an enhancement ratio greater than 20),,,,
Cc1nc2cccc(O[C@H]3CC[C@H](NC(=O)CN(C)C)CC3)c2c(N)c1C(=O)O [Compound 324],A (an enhancement ratio of greater than 1 and less than 10),A (an enhancement ratio of greater than 1 and less than 10),A (an enhancement ratio of greater than 1 and less than 10),,,,
